Reference: PMC10432564, “Pharmacological perturbation of the phase-separating protein SMNDC1” (Nature Communications, 2023)

Assays:
[1] = target: T1, SMNDC1 Tudor domain (Homo sapiens, UniProt O75940); assay: AlphaScreen, SMNDC1 Tudor domain / sDMA-peptide interaction; settings: for effect of the structural modification on potency / IC50: structure-activity relationships around compound 1; for selectivity between SMNDC1 and SMN: AlphaScreen SMNDC1 vs SMN
T1 sequence (O75940 65-128): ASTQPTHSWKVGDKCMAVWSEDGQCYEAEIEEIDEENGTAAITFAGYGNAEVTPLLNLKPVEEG
Excerpt: To pharmacologically perturb SMNDC1 function, we set out to identify small molecule inhibitors of SMNDC1’s Tudor domain based on perturbing its interaction with a dimethylarginine peptide. To establish an AlphaScreen[50], we coupled donor beads to purified SMNDC1’s (or SMN’s) Tudor domain via a His-Tag and acceptor beads to a biotinylated peptide corresponding to the C-terminal region of the Small nuclear ribonucleoprotein Sm D3 containing four sDMAs (Fig. 4a). […] To identify ideal concentrations for screening, we performed a cross-titration of Tudor domains and binding peptides (Supplementary Fig. 3b).
(§1) The AlphaScreen was conducted in 20 mM sodium phosphate pH 6.5, 50 mM NaCl, Tween 0.01%, BSA 0.1%. Protein concentration was optimized for each batch of purified protein. Optimal concentration was chosen at the lowest concentration with ~80% of maximum signal. […] In the first step, 10 µl of the protein solution containing either SMNDC1’s or SMN’s Tudor domain coupled to a 6xHis-Tag were distributed to 384-well plates pre-spotted with compounds and controls, shaken and incubated for 30 min at RT. Afterwards, 10 µl of peptide solution was added to each well and incubated for 1 h at RT. Finally, 5 µl of a solution containing both Streptavidin Donor and nickel chelate (Ni-NTA) Acceptor beads was added and again incubated for 1 h at RT.
Category Parameter Description
Assay Type of assay In vitro AlphaScreen / luminescence proximity
Target Tudor domain of SMNDC1
Primary measurement Decrease in luminescence signal reflecting
disruption of heterodimeric complex between
SMNDC1-Tudor domain and a peptide
corresponding to the C-terminus of Small nuclear
ribonucleoprotein Sm D3 containing 4 sDMAs
Key reagents AlphaScreen no-wash assay kit containing
Streptavidin Donor beads and nickel chelate (Ni-
NTA) AlphaScreen Acceptor beads (PerkinElmer
Assay protocol Described in Methods section
Screen Format PerkinElmer OptiPlate-384 well plate
Concentration(s) tested Typically 10 μM (0.1% DMSO)
Plate controls 32 positive control wells (Mitoxantrone, quencher),
32 negative control wells (DMSO)
Reagent/ compound dispensing system Echo 520 Liquid Handler Multidrop™ Combi
Normalization Raw signal was normalized plate-specifically by
correcting row and column-specific mean signals to
the mean signal of the entire plate, each after
removing the highest and lowest 25% of values. Raw
signal was then converted to percent of control
signal, but linear regression to plate-specific mean
signal of DMSO wells (set to 100 percent of control)
and positive control wells (set to 0% of control), after
outlier removal using a Grubbs test.
unspecific quenchers), Secondary screen (with

[2] = target: SMN Tudor domain (Homo sapiens, UniProt Q16637); assay: AlphaScreen, SMN Tudor domain / sDMA-peptide interaction
Description: To establish an AlphaScreen[50], we coupled donor beads to purified SMNDC1’s (or SMN’s) Tudor domain via a His-Tag and acceptor beads to a biotinylated peptide corresponding to the C-terminal region of the Small nuclear ribonucleoprotein Sm D3 containing four sDMAs (Fig. 4a). […] To identify ideal concentrations for screening, we performed a cross-titration of Tudor domains and binding peptides (Supplementary Fig. 3b).
as §1

[3] = system: SMNDC1-GFP αTC1 clones; assay: Live imaging of endogenously tagged SMNDC1-GFP; format: cell-based, mouse
Excerpt: Cell lines with fluorescent tags in the endogenous intron loci of different genes were generated as described in Serebrenik et al., and Reicher et al.[39],[74]. Cells were transiently transfected using Avalanche-Everyday Transfection Reagent with three plasmids in parallel: (1) the donor plasmid containing the artificial intron with splice acceptor and splice donor site, the fluorescent tag GFP or RFP, and a possible correction for the frame of the targeted intron, (2) a pX330 backbone containing Cas9 and the gRNA against the donor plasmid, and (3) a plasmid expressing the gRNA against the target intron (see table below). After 3–5 days, GFP- and/or RFP-positive cells were sorted on a SONY SH800 Cell Sorter to get fluorescent single cell clones. Clones were validated for the correct integration of the intron-tag via comparison of live cell images to publicly available or in-house IF images, genomic DNA PCR amplification of the respective loci, and western blots with antibodies against the target protein and/or the fluorescent tag.
Cells were imaged on a PerkinElmer Opera Phenix automated microscope with 500 ms exposure time in either GFP or RFP channel, or on a Zeiss LSM 980 microscope. For condition-independent identification nuclear markers such as Hoechst or DRAQ5^TM were used.
Images were analyzed using the high-content image acquisition and analysis software Harmony® 4.9 developed by PerkinElmer. First, nuclei were identified in the channel of the nuclear marker (DAPI/ Hoechst/ DRAQ5^TM) (with Method C, Common Threshold 0.75, Area > 10 µm^2). After the identification of nuclei, their corresponding cytoplasm was also identified using the respective nucleic acid marker (with Method A, Individual Threshold 0.15). Even though the highest staining of these nuclear markers is obviously detected in the nucleus they still produce a significant staining of the cytoplasm above background. After defining the respective cell areas, mean intensity in the different channels was measured. Finally, spots were identified with the according “Spots” algorithm (with Method A, Relative Spot Intensity > 0.053, Splitting Sensitivity: 1.0).

SMN Tudor domain, sequence (Q16637 84-147): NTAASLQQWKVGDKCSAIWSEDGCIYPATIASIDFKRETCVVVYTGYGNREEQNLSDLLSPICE

Row | Structure (SMILES) | IC50 [1] [nM] | IC50 [2] [nM] | other results
1 | O=C(Nc1nc(-c2ccccn2)cs1)c1ccc(-n2cnnn2)cc1 [compound 27] | 730 | 1230 | 
2 | CCc1ccccc1NC(=O)c1cccc2c1C(=O)N(c1ccc(OC)cc1)C2 [Fig. 4i] | 1400 | 3900 | 
3 | CCn1ccc(C(=O)Nc2nc(-c3ccccn3)cs2)n1 [compound 21] | 1090 | 1160 | 
4 | Cc1ccc(C(=O)Nc2nc(-c3ccccn3)cs2)o1 [compound 22] | 470 | 900 | 
5 | CC(C)(C)OC(=O)NCCNC(=O)c1ccc(C(=O)Nc2nc(-c3ccccn3)cs2)cc1 [compound 28] |  | 15400 | effects on SMNDC1 and SRRM2 localization ([3]; double-tagged SMNDC1-GFP SRRM2-RFP αTC1-clone, 50/25/12.5/6.25/3.125 µM): could confirm the effects observed for the non-selective compound 1
6 | CC1NC(=O)NC1CCCCCC(=O)OCC(=O)c1ccccc1 (centres unmarked) [Fig. 4h] | 190 | 4000 | 
7 | COc1ccc(Cc2nnc(NC(=O)Cc3cccs3)s2)cc1OC [Fig. 4g] | 2300 | 5800 | 
8 | N=C(N)Nc1nc(-c2ccccn2)cs1 [compound 19] | 14500 | 13200 | 
9 | Cc1sc(NC(=O)c2ccc(S(=O)(=O)N(C)C)cc2)nc1-c1ccccn1 [compound 10] | 450 | 1260 | effect of the structural modification on potency / IC50 [1]: without loss of potency
10 | OCCCCCCO [1,6-hexanediol, reference compound] |  |  | focal localization of SMNDC1-GFP within the nucleus ([3]; live cells, 2.5% or 5%): losing its focal localization within the nucleus
11 | N#Cc1cccc(C(=O)Nc2nc(-c3ccc[nH]3)cs2)c1 [compound 8] | 4050 | 8240 | effect of the structural modification on potency / IC50 [1]: some loss of potency
12 | O=S(=O)(Nc1nc(-c2ccccn2)cs1)c1ccccc1 [compound 18] | 1000 | 2550 | 
13 | O=C(O)c1ccc(C(=O)Nc2nc(-c3ccccn3)cs2)cc1 [compound 26] | 1100 | 3380 | 
14 | O=C(Nc1nc(-c2ccccn2)cs1)C1CC1 [compound 20] | 2120 | 2930 | 
15 | CN(C)S(=O)(=O)c1ccc(C(=O)Nc2nc(-c3ccncc3)cs2)cc1 [compound 4] | 9560 | 3030 | 
16 | COc1ccc(CCNc2nc(-c3ccccn3)cs2)cc1OC [compound 17] | 1420 | 2000 | 
17 | CCOC(=O)c1csc(NC(=O)c2ccc(S(=O)(=O)N(C)C)cc2)n1 [compound 9] | > 50000 | > 50000 | effect of the structural modification on potency / IC50 [1]: complete loss of activity; SMNDC1-GFP spots within the nucleus ([3]; 50 µM, 12–16 h): not observed; SMNDC1 within the nucleus (nuclear SMNDC1-GFP) ([3]; 50 µM, 12–16 h): not observed
18 | Cc1ccnc2nc(C(=O)Nc3nc(-c4ccccn4)cs3)nn12 [compound 24] | 810 | 1350 | 
19 | CC(C)(C)CNC(=O)c1ccc(C(=O)Nc2nc(-c3ccccn3)cs2)cc1 [compound 25] | 1470 | 9820 | selectivity between SMNDC1 and SMN [1]: increased selectivity for SMNDC1 over SMN
20 | CCc1sc(NC(=O)c2ccc(S(=O)(=O)N(C)C)cc2)nc1-c1ccccn1 [compound 11] | 1400 | 3520 | 
21 | COc1ccccc1-c1csc(NC(=O)c2ccc(S(=O)(=O)N(C)C)cc2)n1 [compound 5] | 920 | 1700 | 
22 | Nc1nc(-c2ccccn2)co1 [compound 16] | 20700 | > 50000 | drop in potency ([1]; thiazole replaced with analogous oxazole): 40 fold
23 | Nc1ncc(-c2ccccn2)s1 [compound 15] | > 50000 | 15200 | selectivity between SMNDC1 and SMN [1]: preferentially inhibited SMN over SMNDC1; effect of the structural modification on potency / IC50 [1]: significant loss of activity
24 | Cc1cc(C)n2c(Nc3ccccc3C)c(-c3ccccn3)nc2n1 [Fig. 4k] | 1100 | 1200 | 
25 | CCN(CC)S(=O)(=O)c1ccc(C(=O)Nc2nc(-c3cccnc3)cs2)cc1 [compound 3] | > 50000 | > 50000 | 
26 | O=C(Nc1nc(-c2ccccn2)cs1)c1ccc(S(=O)(=O)N2CCOCC2)cc1 [Fig. 4e] | 770 | 640 | 
27 | CN(C)S(=O)(=O)c1ccc(C(=O)Nc2nc(-c3ccccn3)c(Br)s2)cc1 [compound 12] | 1370 | 3840 | 
28 | Nc1csc(-c2ccccn2)n1 [compound 14] | 1780 | 5350 | 
29 | Cc1ccc(-c2csc(NC(=O)c3ccc(S(=O)(=O)N4CCCC4)cc3)n2)o1 [compound 6] | 33700 | 29400 | 
30 | O=C(Nc1nc(-c2cccs2)cs1)c1ccc(S(=O)(=O)N2CCCC2)cc1 [compound 7] | > 50000 | > 50000 | 
